Measured values reported in paper PMC12169662, “De Novo-Designed APC/C Inhibitors Provide a Rationale for Targeting RING-Type E3 Ubiquitin Ligases” (Journal of Medicinal Chemistry, 2025).
Values belong to the compound of their own block, whether it stands above or below them. Bridge positions count the residues as written; N and C are the ends. Square brackets hold non-standard residues; d marks the D form. Peptide text beside a SMILES is read from it. R8 = C=CCCCCCC[C@@](C)(N)C(=O)O; S5 = C=CCCC[C@](C)(N)C(=O)O; Pra = C#CC[C@H](N)C(=O)O

Columns and labels:
UBE2S = target: T1, UBE2S (Homo sapiens, UniProt Q16763); experiment: In vitro E2 activity assay (autoubiquitination); assay type: biochemical; settings: 100 μM, 45 min, 30 °C, Blue Silver staining, n = 3
T1 construct: gift of Sonja Lorenz (MPI, Göttingen, Germany)
T1 sequence (Q16763 1-222): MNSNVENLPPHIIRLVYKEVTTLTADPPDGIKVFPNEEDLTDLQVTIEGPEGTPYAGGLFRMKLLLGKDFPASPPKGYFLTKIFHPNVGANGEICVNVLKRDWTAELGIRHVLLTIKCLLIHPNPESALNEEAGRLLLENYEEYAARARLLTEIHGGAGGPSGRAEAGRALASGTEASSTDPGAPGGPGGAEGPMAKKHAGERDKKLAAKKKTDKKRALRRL
Procedure: UBE2C and UBE2S activity assays were performed at 30 °C in 50 mM HEPES pH 7.4, 100 mM KCl, 9 mM MgCl2, and contained 0.6 μM UBA1 (E1), 8 μM UBE2C or UBE2S, 60 μM His6-ubiquitin, and 5.6 mM ATP. It should be noted that wild-type UBE2C and UBE2S were used. The reaction was done in a volume of 15 μL, and it was quenched after 45 min with the LDS sample buffer supplemented with 100 mM DTT and subjected to SDS-PAGE followed by Blue Silver staining. Imaging of Blue Silver-stained gels was done by a quantitative near-infrared scanning system, Odyssey. It should be noted that reactions without ATP were first preincubated for 5 min at room temperature.

APC/C [1] = target: T2, APC/C (Homo sapiens, UniProt Q9NYG5); experiment: In vitro APC/C ubiquitination assay, fully reconstituted with recombinant APC/C, substrate securin; assay type: biochemical; set-up: made in house; host or cells: SF9 insect cells, co-infected with two baculoviruses (bacmids a gift from David Barford); settings: 25 μM, lowest concentration of titration 25-100 μM, n = 3
Procedure: Next, we tested the APC/C inhibitory proficiency of H1-6 in fully reconstituted activity assays with recombinant APC/C in comparison to BH3 and the commercially available APC/C inhibitor TAME. To account for mechanistic differences in APC/C inhibition between TAME (inhibits CDC20 binding) and ^i APC11 (inhibits E2 binding), all inhibitors, E2s and CDC20 were added simultaneously to APC/C. […] We observed no difference for UBE2C and only a small (∼10%) decrease in UBE2S autoubiquitylation compared to control reactions (Figure S16B–D).
To quantify the inhibitory effectiveness of H6, its IC50 was determined. To this end, we performed in vitro APC/C ubiquitination assays in the presence of H6 titrated from 0.01 to 100 μM (Figure S17B). […]
APC/C-dependent ubiquitination reactions were performed at 30 °C in 30 mM HEPES pH 7.4, 175 mM NaCl, 8 mM MgCl2, 0.05% Tween-20, 1 mM DTT and 5% glycerol and contained 20 nM recombinant APC/C, 340 nM CDC20, 46 nM GST-UBA1, 340 nM UBE2C (alternatively 400 nM UBE2D, 280 nM UBE2S), 21 μM His6-ubiquitin or if it is indicated 21 μM methylated-ubiquitin (BostonBiochem), 2.6 mM ATP, 10 mM phosphocreatine, and 11 μM creatine kinase. […] Detection of fluorescently labeled substrates was done by a quantitative near-infrared scanning system, Odyssey. […]

MDM2 = target: T3, MDM2 (Homo sapiens, UniProt Q00987); experiment: Pull-down binding assay from HeLa cell extract, Western blot; settings: peptide clicked to azide agarose beads, n = 3
T3 construct: endogenous in cells; host or cells: HeLa
Procedure: (§1) For protein transfer, a 0.45 μm Immobilon-FL PVDF membrane (Merck Millipore) was used. The membrane was activated in ethanol and then transferred to Blotting buffer (50 mM SDS-MOPS, 50 mM Tris base, 0.1% SDS, 1 mM EDTA, and 20% EtOH). The proteins were transferred using a wet transfer for 1.5 h at 400 mA. Subsequently, the membrane was incubated with the blocking solution, 10% milk in PBS-T (0.02% Tween-20 in PBS), for 1 h at room temperature. To detect proteins of interest, the membrane was incubated with primary antibodies overnight at 4° C, followed by 3 washes for 10 min with PBS-T and incubation with IRDye-labeled secondary antibodies for 1 h. Prior to detection, the membrane was washed twice with PBS-T for 10 min and once with PBS for 10 min. The detection was done using the quantitative near-infrared scanning system Odyssey (LI-COR Biosciences).
(§2) HeLa cell pellet was resuspended in the extraction buffer (30 mM HEPES pH 7.5, 175 mM NaCl, 2.5 mM MgCl2, 0.25% NP40, 10% glycerol, 1 mM DTT supplied with complete protease inhibitor cocktail (Roche), PhosSTOP phosphatase inhibitors (Roche), 1 mM PMSF, 10 μM MG132) and incubated for 20 min on ice, followed by centrifugation to clear the lysate for 15 min at 4 °C 16,100 g. In the meantime, inhibitor molecules containing the propargyl-Gly-OH (Pra) chemical group were covalently attached to the azide agarose resin (Jena Bioscience) by Cu(I)-catalyzed azide–alkyne cycloaddition reaction. Specifically, the inhibitor molecules were mixed with azide agarose resin in a ratio of 0.125 μmol inhibitor/20 μL agarose resin. The reaction was catalyzed by 0.1 mM CuSO4, 0.5 mM THPTA (Sigma-Aldrich), and 5 mM Sodium ascorbate and was performed on the rotating wheel for 30 min at room temperature in a volume of 1 mL. Subsequently, the resin was washed five times with extraction buffer. The inhibitor-agarose resin was added to 2 mg of HeLa cell extract and incubated at 4 °C for 2 h. Afterward, the resin was washed four times with extraction buffer. Pull-down proteins were eluted by incubation with prewarmed 1x LDS sample buffer for 10 min at room temperature, followed by taking supernatant supplemented with 100 mM DTT and boiling for 10 min. Afterward, SDS PAGE and Western blot analyses were performed to detect the indicated proteins.

c-IAP1 = target: T4, c-IAP1 (Homo sapiens, UniProt Q13490); experiment: as above; settings: peptide clicked to azide agarose beads, n = 3
T4 construct: endogenous in cells; host or cells: HeLa
Procedure: as §1, §2

BMI1 = target: T5, BMI1 (Homo sapiens, UniProt P35226); experiment: as above; settings: peptide clicked to azide agarose beads, n = 3
T5 construct: endogenous in cells; host or cells: HeLa
T5 sequence (P35226 1-326): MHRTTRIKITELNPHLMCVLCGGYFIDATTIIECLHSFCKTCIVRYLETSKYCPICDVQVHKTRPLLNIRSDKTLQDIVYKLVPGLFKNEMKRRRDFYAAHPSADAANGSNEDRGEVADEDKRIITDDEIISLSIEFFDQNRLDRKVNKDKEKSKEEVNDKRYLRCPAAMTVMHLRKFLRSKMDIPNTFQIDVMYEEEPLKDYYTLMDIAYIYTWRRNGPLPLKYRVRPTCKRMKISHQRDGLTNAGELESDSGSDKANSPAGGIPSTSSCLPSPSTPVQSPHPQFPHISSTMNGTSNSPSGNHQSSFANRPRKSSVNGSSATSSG
Procedure: as §1, §2

BRCA1 = target: T6, BRCA1 (Homo sapiens, UniProt P38398); experiment: as above; settings: peptide clicked to azide agarose beads, n = 3
T6 construct: endogenous in cells; host or cells: HeLa
Procedure: as §1, §2

c-CBL = target: T7, c-CBL (Homo sapiens, UniProt P22681); experiment: as above; settings: peptide clicked to azide agarose beads, n = 3
T7 construct: endogenous in cells; host or cells: HeLa
Procedure: as §1, §2

APC11 = target: T8, APC11 (Homo sapiens, UniProt Q9NYG5); experiment: as above; settings: peptide clicked to azide agarose beads, 2 mg HeLa extract, 4 °C, 2 h, n = 3
T8 construct: endogenous in cells; host or cells: HeLa
Procedure: as §1, §2

RBX1 = target: T9, RBX1 (Homo sapiens, UniProt P62877); experiment: as above; settings: n = 3; for binding to RBX1, Pra-H1 versus Pra-BH3: pull-down with metaphase extracts
T9 construct: endogenous in cells; host or cells: HeLa
Procedure: as §1, §2

APC/C [2] = target: T2, APC/C; experiment: In vitro APC/C ubiquitylation assay with APC/C immunoprecipitated from metaphase HeLa cells; assay type: biochemical; set-up: immunoprecipitated APC/C from metaphase-synchronized HeLa cells; endogenous in cells; host or cells: metaphase-synchronized HeLa cells (APC/C); the E2 is recombinant; settings: 100 μM, end-point assay, UBE2C as E2, dye-labeled securin, in-gel scanning, n = 5
Text: To assess prevention of RING activation by our E2 mimetics, and thus validate our design strategy, we employed in vitro APC/C ubiquitylation assays containing immunoprecipitated APC/C from metaphase-synchronized HeLa cells, recombinant UBA1 (E1), UBE2C (E2), ubiquitin, and dye-labeled metaphase APC/C substrate securin (Figure A). […] To immobilize BH3 to beads, we used our models to introduce propargylglycine (Pra) (Pra-BH3) at the N-term and thus enable side chain conjugation with azide agarose beads by click chemistry (Figure E). […] Pra-BH3 also precipitated other RING-type E3 including BRCA1, BMI1, MDM2, c-CBL and c-IAP1 (Figure F). However, except for c-CBL and MDM2, those interactions were weaker, as judged by the degree of enrichment over the input of the assay (Figure G).
APC/C-dependent ubiquitination reactions were performed at 30 °C in 30 mM HEPES pH 7.4, 175 mM NaCl, 8 mM MgCl2, 0.05% Tween-20, 1 mM DTT and 5% glycerol and contained 20 nM recombinant APC/C, 340 nM CDC20, 46 nM GST-UBA1, 340 nM UBE2C (alternatively 400 nM UBE2D, 280 nM UBE2S), 21 μM His6-ubiquitin or if it is indicated 21 μM methylated-ubiquitin (BostonBiochem), 2.6 mM ATP, 10 mM phosphocreatine, and 11 μM creatine kinase. […] Detection of fluorescently labeled substrates was done by a quantitative near-infrared scanning system, Odyssey.

T9 sequence (P62877 whole entry): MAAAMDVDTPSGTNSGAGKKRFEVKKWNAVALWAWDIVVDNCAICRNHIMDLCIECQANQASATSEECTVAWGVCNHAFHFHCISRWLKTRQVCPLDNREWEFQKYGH
T3 sequence (Q00987 whole entry): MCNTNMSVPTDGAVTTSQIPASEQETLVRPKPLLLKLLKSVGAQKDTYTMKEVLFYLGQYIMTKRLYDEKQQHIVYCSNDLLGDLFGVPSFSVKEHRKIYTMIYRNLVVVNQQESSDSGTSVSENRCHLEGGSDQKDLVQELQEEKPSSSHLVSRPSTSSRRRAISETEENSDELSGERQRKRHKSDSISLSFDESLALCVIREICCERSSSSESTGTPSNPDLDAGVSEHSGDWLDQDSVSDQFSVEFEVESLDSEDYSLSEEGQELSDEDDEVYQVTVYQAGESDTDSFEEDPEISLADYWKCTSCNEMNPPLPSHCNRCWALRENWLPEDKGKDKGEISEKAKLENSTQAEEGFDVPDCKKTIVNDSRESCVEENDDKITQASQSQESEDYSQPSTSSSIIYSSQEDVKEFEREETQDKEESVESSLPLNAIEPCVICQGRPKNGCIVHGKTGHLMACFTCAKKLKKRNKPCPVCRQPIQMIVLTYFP
T6 sequence (P38398 whole entry): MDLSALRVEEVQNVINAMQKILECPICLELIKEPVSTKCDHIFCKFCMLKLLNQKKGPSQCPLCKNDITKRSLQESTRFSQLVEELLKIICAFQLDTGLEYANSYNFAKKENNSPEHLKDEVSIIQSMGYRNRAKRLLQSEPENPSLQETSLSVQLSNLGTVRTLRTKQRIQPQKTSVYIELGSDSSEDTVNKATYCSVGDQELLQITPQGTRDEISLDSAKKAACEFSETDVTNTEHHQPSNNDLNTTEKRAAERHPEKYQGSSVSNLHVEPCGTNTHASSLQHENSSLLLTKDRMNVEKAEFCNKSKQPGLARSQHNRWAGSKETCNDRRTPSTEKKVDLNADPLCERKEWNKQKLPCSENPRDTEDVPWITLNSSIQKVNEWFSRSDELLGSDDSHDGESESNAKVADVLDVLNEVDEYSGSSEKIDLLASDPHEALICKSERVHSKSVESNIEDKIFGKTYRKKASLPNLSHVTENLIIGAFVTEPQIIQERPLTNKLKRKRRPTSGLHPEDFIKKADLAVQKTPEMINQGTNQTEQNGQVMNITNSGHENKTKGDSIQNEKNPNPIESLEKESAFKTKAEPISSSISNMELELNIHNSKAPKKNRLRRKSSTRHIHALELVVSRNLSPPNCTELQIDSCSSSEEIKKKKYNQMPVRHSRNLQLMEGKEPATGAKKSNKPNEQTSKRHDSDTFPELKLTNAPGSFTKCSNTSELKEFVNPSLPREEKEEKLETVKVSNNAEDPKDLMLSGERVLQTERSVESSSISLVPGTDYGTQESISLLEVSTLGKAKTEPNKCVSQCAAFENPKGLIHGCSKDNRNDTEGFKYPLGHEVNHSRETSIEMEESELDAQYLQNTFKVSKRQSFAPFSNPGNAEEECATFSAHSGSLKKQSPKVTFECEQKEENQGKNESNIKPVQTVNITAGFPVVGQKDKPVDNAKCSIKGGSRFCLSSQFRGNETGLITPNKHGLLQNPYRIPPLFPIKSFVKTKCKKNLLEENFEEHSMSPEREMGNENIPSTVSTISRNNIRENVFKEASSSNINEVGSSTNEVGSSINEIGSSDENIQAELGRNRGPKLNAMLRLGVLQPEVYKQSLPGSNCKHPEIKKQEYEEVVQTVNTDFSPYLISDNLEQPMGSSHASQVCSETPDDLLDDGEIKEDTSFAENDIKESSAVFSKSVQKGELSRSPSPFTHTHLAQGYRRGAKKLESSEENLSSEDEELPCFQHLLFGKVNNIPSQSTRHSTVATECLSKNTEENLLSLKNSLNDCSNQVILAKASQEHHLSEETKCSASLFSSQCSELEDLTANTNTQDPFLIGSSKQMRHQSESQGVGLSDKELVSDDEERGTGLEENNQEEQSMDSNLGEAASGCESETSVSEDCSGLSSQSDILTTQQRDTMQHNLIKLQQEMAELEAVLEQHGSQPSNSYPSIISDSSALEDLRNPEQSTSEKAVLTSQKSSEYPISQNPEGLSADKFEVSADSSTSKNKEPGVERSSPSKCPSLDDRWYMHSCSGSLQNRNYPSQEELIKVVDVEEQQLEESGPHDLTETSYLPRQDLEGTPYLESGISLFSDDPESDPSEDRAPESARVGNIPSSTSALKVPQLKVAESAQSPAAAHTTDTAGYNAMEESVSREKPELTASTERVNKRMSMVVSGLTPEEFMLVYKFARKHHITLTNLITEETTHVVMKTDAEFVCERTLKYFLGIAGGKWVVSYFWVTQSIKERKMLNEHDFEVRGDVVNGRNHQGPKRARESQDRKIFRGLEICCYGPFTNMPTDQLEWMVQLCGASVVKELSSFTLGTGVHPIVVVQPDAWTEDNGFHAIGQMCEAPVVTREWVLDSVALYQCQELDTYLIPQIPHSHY
T4 sequence (Q13490 whole entry): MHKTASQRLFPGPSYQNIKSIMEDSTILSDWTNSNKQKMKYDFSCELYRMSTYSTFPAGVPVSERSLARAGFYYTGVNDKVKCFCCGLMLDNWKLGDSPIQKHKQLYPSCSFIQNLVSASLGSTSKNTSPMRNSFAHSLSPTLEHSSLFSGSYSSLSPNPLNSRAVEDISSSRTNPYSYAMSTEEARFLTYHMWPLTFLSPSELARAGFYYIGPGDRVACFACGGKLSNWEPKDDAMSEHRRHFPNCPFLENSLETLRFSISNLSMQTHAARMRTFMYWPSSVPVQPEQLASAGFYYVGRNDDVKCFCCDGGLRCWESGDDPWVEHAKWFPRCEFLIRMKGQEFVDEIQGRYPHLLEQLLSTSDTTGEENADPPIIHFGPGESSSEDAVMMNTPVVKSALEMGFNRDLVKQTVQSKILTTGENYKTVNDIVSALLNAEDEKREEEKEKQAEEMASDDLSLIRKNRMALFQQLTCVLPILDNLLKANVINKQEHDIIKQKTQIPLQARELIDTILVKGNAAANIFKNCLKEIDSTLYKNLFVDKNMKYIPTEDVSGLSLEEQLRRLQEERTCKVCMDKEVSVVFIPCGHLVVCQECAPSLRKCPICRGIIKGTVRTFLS
T8 sequence (Q9NYG5 whole entry): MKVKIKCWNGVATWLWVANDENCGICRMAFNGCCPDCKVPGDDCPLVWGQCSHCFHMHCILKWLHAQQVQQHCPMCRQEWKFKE

decrease in UBE2S autoubiquitylation compared to control reactions (UBE2S): ~10% | reduction of APC/C activity toward securin (APC/C [1]): more than 80%
Compound: CC[C@H](C)[C@@H]1NC(=O)[C@H](CCC(=O)O)NC(=O)[C@H](CCCCN)NC(=O)[C@H]([C@@H](C)CC)NC(=O)[C@](C)(NC(=O)[C@H](Cc2c[nH]c3ccccc23)NC(=O)[C@H](Cc2c[nH]c3ccccc23)NC(=O)[C@H](CCC(=O)O)NC(C)=O)CCCCCCC=CCCC[C@@](C)(C(=O)N[C@@H](CCCNC(=N)N)C(=O)N[C@@H](CCCNC(=N)N)C(=O)N[C@@H](C)C(N)=O)NC(=O)[C@H](CCCNC(=N)N)NC(=O)[C@H](CCC(N)=O)NC1=O [H6] (Ac-EWW[R8]IKEIQR[S5]RRA-NH2; staple 4-11)

precipitation of MDM2 on beads (MDM2): precipitated | precipitation of c-IAP1 on beads, enrichment over input (c-IAP1): weaker | precipitation of BMI1 on beads, enrichment over input (BMI1): weaker | precipitation of BRCA1 on beads, enrichment over input (BRCA1): weaker | precipitation of c-CBL on beads (c-CBL): precipitated | enrichment of APC11 on beads (APC11): strong enrichment | enrichment of RBX1 on beads (RBX1; peptide clicked to azide agarose beads, 2 mg HeLa extract, 4 °C, 2 h): not | binding to RBX1, Pra-H1 versus Pra-BH3 (RBX1): very weak and unchanged
Compound: Ac-[Pra]RCHWGPRTFWCR-NH2 (disulfide 3-12 (inferred); SMILES C#CC[C@H](NC(C)=O)C(=O)N[C@@H](CCCNC(=N)N)C(=O)N[C@H]1CSSC[C@@H](C(=O)N[C@@H](CCCNC(=N)N)C(N)=O)NC(=O)[C@H](Cc2c[nH]c3ccccc23)NC(=O)[C@H](Cc2ccccc2)NC(=O)[C@H]([C@@H](C)O)NC(=O)[C@H](CCCNC(=N)N)NC(=O)[C@@H]2CCCN2C(=O)CNC(=O)[C@H](Cc2c[nH]c3ccccc23)NC(=O)[C@H](Cc2c[nH]cn2)NC1=O) [Pra-BH3, BH3 with propargylglycine at the N-term for click chemistry]

binding to RBX1, Pra-H1 versus Pra-BH3 (RBX1): very weak and unchanged
Compound: C#CC[C@H](NC(=O)[C@@H]1CCCN1C(=O)[C@H](Cc1c[nH]c2ccccc12)NC(=O)[C@H](CCCNC(=N)N)NC(C)=O)C(=O)N[C@@]1(C)CCCC=CCCC[C@@](C)(C(=O)N[C@@H](CCC(N)=O)C(=O)N[C@H](C(=O)N[C@@H](CCCNC(=N)N)C(=O)N[C@@H](CCCNC(=N)N)C(=O)N[C@@H](Cc2c[nH]c3ccccc23)C(N)=O)C(C)C)NC(=O)[C@H](CC(=O)O)NC(=O)[C@H](Cc2c[nH]c3ccccc23)NC(=O)[C@H](CCCCN)NC1=O [Pra-H1] (Ac-RWP[Pra][S5]KWD[S5]QVRRW-NH2; staple 5-9)

securin ubiquitylation compared to control reactions (APC/C [2]): no such effect
Compound: C[C@@H](O)[C@H](NC(=O)[C@H](CCCNC(=N)N)NC(=O)[C@@H]1CSSC[C@H](NC(=O)[C@H](CCCNC(=N)N)NC(=O)CN)C(=O)N[C@@H](Cc2c[nH]cn2)C(=O)N[C@@H](Cc2c[nH]c3ccccc23)C(=O)NCC(=O)N2CCC[C@H]2C(=O)N[C@@H](CCC(=O)O)C(=O)N[C@@H]([C@@H](C)O)C(=O)N[C@@H](Cc2ccccc2)C(=O)N[C@@H](Cc2c[nH]c3ccccc23)C(=O)N1)C(=O)O [BH4] (H-GRCHWGPETFWCRT-OH; disulfide 3-12)
